Reference: US7285546B2, “Cephalotaxanes, their method of preparation and their use in treatment of cancers, leukemias, parasites including those resistant to usual chemotherapeutic agents and as reversal agents” (Stragen Pharma S.A., priority 2000, dated 2007)
Converted amounts (≈) assume the structure as drawn.

test system: K562 cell line; assay: MTT test of structural analogues of harringtonines on K562 cell line; assay type: cell-based; conditions: Homo sapiens, K562, 72 h
Description: Structural analogues of harringtonines described in this invention were tested on K562 cell line, derived from chronic myeloid leukemia cells in blastic transformation (bcr-abl positive). The cell line was purchased from ATCC (American Tissue Culture Collection) and grown in RPMI medium supplemented with 10% heat-inactivated fetal calf serum, 2 mmol/L glutamine, […] penicillin and […] streptomycin. All tested products were initially dissolved in […] (pH=2), supplemented with ultrasound treatment during 1 h. Working concentrations were made by dilution in culture medium (pH around 7). Cells in exponential growth phase were placed into 96-microwell plates in concentration 3×10^4/mL (total volume 200 μL/well) and incubated with drugs for 72 h at 37° C. in 5% CO2 humidified atmosphere. Following incubation, 2 μL of MTT solution (Sigma, St. Louis, Mo.) was added to each well. During the following 6 h of incubation at 37° C., the purple formazan product was formed by conversion of the yellow MTT salt in the mitochondria of the viable cells. The resulting precipitate was dissolved in DMSO and the amount of converted MTT was quantified in an ELISA reader (MR 5000, Dynatech). Each product was tested in triplicate (3×8 wells). Every test contained at least one plate with HHT as control, added in the same concentration as the tested products.

| Compound | IC50 |
| --- | --- |
| CCSC(=O)C[C@](O)(CCCC(C)(C)O)C(=O)OC1C(OC)=C[C@@]23CCCN2CCc2cc4c(cc2[C@H]13)OCO4 (stereo partly drawn) [Example 32, (2′R)-4′-ethylthio-4′-demethoxy-homoharringtonine] | 0.08 µg/mL (≈ 0.139 µM) |
| COC(=O)C[C@](O)(CCC=C(C)C)C(=O)OC1C(OC)=C[C@@]23CCCN2CCc2cc4c(cc2[C@H]13)OCO4 (stereo partly drawn) [Example 61, 4-methyl (2R)-2-hydroxy-2-(4-methyl-pent-3-enyl)succinate of (−)-cephalotaxine] | 0.0175 µg/mL (≈ 0.0332 µM) |
| CC#CCOC(=O)C[C@](O)(CCCC(C)(C)O)C(=O)OC1C(OC)=C[C@@]23CCCN2CCc2cc4c(cc2[C@H]13)OCO4 (stereo partly drawn) [Example 42, (2′R)-4′-(2-butynyl)-4′-demethyl-homoharringtonine] | 0.0105 µg/mL (≈ 0.018 µM) |
| COC1=C[C@]23CCCN2CCc2cc4c(cc2[C@@H]3[C@@H]1O)OCO4 [CEPHALOTAXINE (CTX), cephalotaxine, reference compound] | 2 µg/mL (≈ 6.34 µM) |
| CCOC(=O)C[C@](O)(CCCC(C)(C)O)C(=O)OC1C(OC)=C[C@@]23CCCN2CCc2cc4c(cc2[C@H]13)OCO4 (stereo partly drawn) [Example 25, (2′R)-4′-ethyl-4′-demethyl-homoharringtonine] | 0.041 µg/mL (≈ 0.0733 µM) |
| COC1=C[C@@]23CCCN2CCc2cc4c(cc2[C@@H]3C1OC(=O)[C@@](O)(CCCC(C)(C)O)CC(=O)OCc1ccc([N+](=O)[O-])cc1)OCO4 (stereo partly drawn) [Example 85, (2′R)-4′-p-nitrobenzyloxy-4′-demethyl-homoharringtonine] | 0.018 µg/mL (≈ 0.027 µM) |
| COC1=C[C@@]23CCCN2CCc2cc4c(cc2[C@@H]3C1OC(=O)[C@@](O)(CCCC(C)(C)O)CC(=O)OCC(C)C)OCO4 (stereo partly drawn) [Example 52, (2′R)-4′-isobutyl-4′-demethyl-homoharringtonine] | 0.024 µg/mL (≈ 0.0408 µM) |
| C=CCOC(=O)C[C@](O)(CCCC(C)(C)O)C(=O)OC1C(OC)=C[C@@]23CCCN2CCc2cc4c(cc2[C@H]13)OCO4 (stereo partly drawn) [Example 40, (2′R)-4′-(2-propenyl)-4′-demethyl-homoharringtonine] | 0.0145 µg/mL (≈ 0.0254 µM) |
| CCCCCCCOC(=O)C[C@](O)(CCCC(C)(C)O)C(=O)OC1C(OC)=C[C@@]23CCCN2CCc2cc4c(cc2[C@H]13)OCO4 (stereo partly drawn) [Example 66, (2′R)-4′-heptyl-4′-demethyl-homoharringtonine] | 0.003 µg/mL (≈ 0.00476 µM) |
| COC1=C[C@@]23CCCN2CCc2cc4c(cc2[C@@H]3C1OC(=O)[C@@](O)(CCCC(C)(C)O)CC(=O)OCCOCc1ccccc1)OCO4 (stereo partly drawn) [Example 80, (2′R)-4′-(2-benzyloxyethoxy)-4′-demethyl-homoharringtonine] | 0.025 µg/mL (≈ 0.0375 µM) |
| COC1=C[C@@]23CCCN2CCc2cc4c(cc2[C@@H]3C1OC(=O)[C@@](O)(CCCC(C)(C)O)CC(=O)OCc1ccco1)OCO4 (stereo partly drawn) [Example 83, (2′R)-4′-furfuryl-4′-demethyl-homoharringtonine] | 0.003 µg/mL (≈ 0.0049 µM) |
| COC1=C[C@@]23CCCN2CCc2cc4c(cc2[C@@H]3C1OC(=O)[C@@](O)(CCCC(C)(C)O)CC(=O)Oc1ccccc1)OCO4 (stereo partly drawn) [Example 79, (2′R)-4′-phenoxy-4′-demethylhomoharringtonine] | 0.01 µg/mL (≈ 0.0165 µM) |
| COC1=C[C@@]23CCCN2CCc2cc4c(cc2[C@@H]3C1OC(=O)[C@@](O)(CCCC(C)(C)O)CC(=O)OCCCCCO)OCO4 (stereo partly drawn) [Example 74, (2′R)-4′-(5-hydroxypentyl)-4′-demethyl-homo harringtonine] | 0.024 µg/mL (≈ 0.0389 µM) |
| CCCOC(=O)C[C@](O)(CCCC(C)(C)O)C(=O)OC1C(OC)=C[C@@]23CCCN2CCc2cc4c(cc2[C@H]13)OCO4 (stereo partly drawn) [Example 51, (2′R)-4′-propyl-4′-demethyl-homoharringtonine] | 0.0225 µg/mL (≈ 0.0392 µM) |
| COC1=C[C@]23CCCN2CCc2cc4c(cc2[C@@H]3C1OC(=O)[C@@](O)(CCCC(C)(C)O)CC(=O)OC(C)C)OCO4 (stereo partly drawn) [Example 27, (2′R)-4′-isopropyl-4′-demethyl-homoharringtonine] | 0.08 µg/mL (≈ 0.139 µM) |
| CCCCCCOC(=O)C[C@](O)(CCCC(C)(C)O)C(=O)OC1C(OC)=C[C@@]23CCCN2CCc2cc4c(cc2[C@H]13)OCO4 (stereo partly drawn) [Example 54, (2′R)-4′-hexyl-4′-demethyl-homoharringtonine] | 0.005 µg/mL (≈ 0.00812 µM) |
| COC1=C[C@@]23CCCN2CCc2cc4c(cc2[C@@H]3C1OC(=O)[C@@](O)(CCCC(C)(C)O)CC(=O)OCC1CC1)OCO4 (stereo partly drawn) [Example 49, (2′R)-4′-cyclopropylmethyl-4′-demethyl-homoharringtonine] | 0.07 µg/mL (≈ 0.12 µM) |
| COC1=C[C@@]23CCCN2CCc2cc4c(cc2[C@@H]3C1OC(=O)[C@@](O)(CCCC(C)(C)O)CC(=O)OCc1ccccc1OC)OCO4 (stereo partly drawn) [Example 90, (2′R)-4′-o-methoxybenzyloxy-4′-demethyl-homoharringtonine] | 0.027 µg/mL (≈ 0.0414 µM) |
| COC1=C[C@@]23CCCN2CCc2cc4c(cc2[C@@H]3C1OC(=O)[C@@](O)(CCCC(C)(C)O)CC(=O)OCc1cccs1)OCO4 (stereo partly drawn) [Example 82, (2′R)-4′-(2-thiophenemethoxy)-4′-demethyl-homoharringtonine] | 0.005 µg/mL (≈ 0.00796 µM) |
| COC1=C[C@@]23CCCN2CCc2cc4c(cc2[C@@H]3C1OC(=O)[C@@](O)(CCCC(C)(C)O)CC(=O)SC(C)(C)C)OCO4 (stereo partly drawn) [Example 36, (2′R)-4′-tert-butylthio-4′-demethoxy-homoharringtonine] | 0.02 µg/mL (≈ 0.0331 µM) |
| COC1=C[C@@]23CCCN2CCc2cc4c(cc2[C@@H]3C1OC(=O)[C@@](O)(CCCC(C)(C)O)CC(=O)OCc1cccc2ccccc12)OCO4 (stereo partly drawn) [Example 81, (2′R)-4′-(1-naphtalenemethoxy)-4′-demethyl-homoharringtonine] | 0.008 µg/mL (≈ 0.0119 µM) |
| COC1=C[C@@]23CCCN2CCc2cc4c(cc2[C@@H]3C1OC(=O)[C@@](O)(CCCC(C)(C)O)CC(=O)OCC(F)(F)F)OCO4 (stereo partly drawn) [Example 48, (2′R)-4′-(2,2,2-trifluoroethyl)-4′-demethyl-homoharringtonine] | 0.1 µg/mL (≈ 0.163 µM) |
| COC1=C[C@@]23CCCN2CCc2cc4c(cc2[C@@H]3C1OC(=O)[C@@](O)(CCCC(C)(C)O)CC(=O)OCC=C(C)C)OCO4 (stereo partly drawn) [Example 39, (2′R)-4′-(3-methyl-2-butenyl)-4′-demethyl-homoharringtonine] | 0.028 µg/mL (≈ 0.0467 µM) |
| COC1=C[C@@]23CCCN2CCc2cc4c(cc2[C@@H]3C1OC(=O)[C@@](O)(CCCC(C)(C)O)CC(=O)SC(C)C)OCO4 (stereo partly drawn) [Example 34, (2′R)-4′-isopropylthio-4′-demethoxy-homoharringtonine] | 0.05 µg/mL (≈ 0.0848 µM) |
| COC1=C[C@@]23CCCN2CCc2cc4c(cc2[C@@H]3C1OC(=O)[C@@](O)(CCCC(C)(C)O)CC(=O)SC)OCO4 (stereo partly drawn) [Example 30, (2′R)-4′-methylthio-4′-demethoxy-homoharringtonine] | 0.05 µg/mL (≈ 0.089 µM) |
| COC1=C[C@@]23CCCN2CCc2cc4c(cc2[C@@H]3C1OC(=O)[C@@](O)(CCCC(C)(C)O)CC(=O)OCc1ccc(C)cc1)OCO4 (stereo partly drawn) [Example 72, (2′R)-4′-p-methylbenzyl-4′-demethyl-homoharringtonine] | 0.006 µg/mL (≈ 0.00944 µM) |
| CC=CCOC(=O)C[C@](O)(CCCC(C)(C)O)C(=O)OC1[C@H]2c3cc4c(cc3[C@@H]3CN5CCC[C@@]25C[C@@]1(OC)O3)OCO4 (stereo partly drawn) [Example 56, 4-(2-butenyl) (2R)-2-hydroxy-2-(4-hydroxy-4-methylpentyl)succinate of (−)-drupacine] | 0.0135 µg/mL (≈ 0.0224 µM) |
| CCCCOC(=O)C[C@](O)(CCCC(C)(C)O)C(=O)OC1C(OC)=C[C@@]23CCCN2CCc2cc4c(cc2[C@H]13)OCO4 (stereo partly drawn) [Example 50, (2′R)-4′-butyl-4′-demethyl-homoharringtonine] | 0.013 µg/mL (≈ 0.0221 µM) |
| CCCCCCCCOC(=O)C[C@](O)(CCCC(C)(C)O)C(=O)OC1C(OC)=C[C@@]23CCCN2CCc2cc4c(cc2[C@H]13)OCO4 (stereo partly drawn) [Example 67, (2′R)-4′-octyl-4′-demethyl-homoharringtonine] | 0.009 µg/mL (≈ 0.014 µM) |
| COC(=O)C[C@](O)(CCC(C)(C)O)C(=O)O[C@@H]1C(OC)=C[C@]23CCCN2CCc2cc4c(cc2[C@H]13)OCO4 [HARRINGTONINE (HHT), harringtonine, reference compound] | 0.03 µg/mL (≈ 0.0564 µM) |

same assay, conditions: Homo sapiens; K562 cell line, 72 h incubation, MTT; read-out: IC50

| Compound | IC50 |
| --- | --- |
| [2H]C([2H])OC(=O)C[C@](O)(CCCC(C)(C)O)C(=O)OC1C(OC)=C[C@@]23CCCN2CCc2cc4c(cc2[C@H]13)OCO4 (stereo partly drawn) [Example 87, (2′R)-(4′-^2H2)homoharringtonine] | 0.021 µg/mL (≈ 0.0383 µM) |
| COC(=O)C[C@](O)(CCCC(C)(C)O)C(=O)O[C@@H]1C(OC)=C[C@]23CCCN2CCc2cc4c(cc2[C@H]13)OCO4 [HOMOHARRINGTONINE, homoharringtonine, reference compound] | 0.014 µg/mL (≈ 0.0257 µM) |
| [2H]C([2H])([2H])OC(=O)C[C@](O)(CCCC(C)(C)O)C(=O)OC1C(OC)=C[C@@]23CCCN2CCc2cc4c(cc2[C@H]13)OCO4 (stereo partly drawn) [Example 75, (2′R)-(4′-^2H3)homoharringtonine] | 0.025 µg/mL (≈ 0.0456 µM) |
| [2H]COC(=O)C[C@](O)(CCCC(C)(C)O)C(=O)OC1C(OC)=C[C@@]23CCCN2CCc2cc4c(cc2[C@H]13)OCO4 (stereo partly drawn) [Example 76, (2′R)-(4′-^2H)homoharringtonine] | 0.018 µg/mL (≈ 0.0329 µM) |

same assay, conditions: K562 cell line, 72 h incubation, MTT

| Compound | IC50 |
| --- | --- |
| 4-(hexa-2,4-dienyl) (2R)-2-hydroxy-2-(4-hydroxy-4-methylpentyl)succinate of (−)-drupacine [Example 57] | 0.009 µg/mL |
| CC=CCOC(=O)C[C@](O)(CCCC(C)(C)O)C(=O)O[C@@H]1C(OC)=C[C@]23CCCN2CCc2cc4c(cc2[C@H]13)OCO4 [Example 37, (2′R)-4′-(but-2-enyl)-4′-demethyl-homoharringtonine] | 0.0125 µg/mL (≈ 0.0213 µM) |
| C=C(C)COC(=O)C[C@](O)(CCCC(C)(C)O)C(=O)O[C@@H]1C(OC)=C[C@]23CCCN2CCc2cc4c(cc2[C@H]13)OCO4 [Example 41, (2′R)-4′-(2-methyl-2-propenyl)-4′-demethyl-homoharringtonine] | 0.0085 µg/mL (≈ 0.0145 µM) |
